These results are taken from US11293927B2, “Screening methods for PARP modulators” (Ribon Therapeutics, Inc., priority 2018, dated 2022).

Broadly, the IC50 is the concentration that inhibits the measured activity by half. A higher IC50 goes with weaker potency in that assay.

The structures appear in SMILES notation.

What all share (type): cell-based
In one assay the target is T1, PARP10 (Homo sapiens, UniProt Q53GL7).
T1 sequence (Q53GL7 808-1025): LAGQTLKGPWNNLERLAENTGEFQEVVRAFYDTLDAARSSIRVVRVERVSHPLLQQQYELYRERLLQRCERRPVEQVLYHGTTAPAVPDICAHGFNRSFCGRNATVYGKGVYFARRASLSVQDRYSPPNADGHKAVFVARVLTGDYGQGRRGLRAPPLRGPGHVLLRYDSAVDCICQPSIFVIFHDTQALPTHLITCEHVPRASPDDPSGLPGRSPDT
Kind of assay: NanoBRET probe displacement assay (Probe A) in live 293T cells, PARP10. Conditions: NanoBRET displacement of Probe A, NanoLuc-tagged PARP10 in live 293T cells. The protocol: (§1) MonoPARP genes from Table 5 were cloned into the pcDNA3.1-mammalian expression vector as a NanoLuc fusion with NanoLuc on the N- or C-terminus as indicated. The sequence of the NanoLuc tag is as follows: [table] Displacement of a fluorescently-labeled compound Probe A binding to NanoLuc-tagged monoPARP enzymes was measured in live cells using a bioluminescence resonance energy transfer (NanoBRET) assay. TIPARP, PARP10, PARP12 or PARP14 fused to a NanoLuc tag were overexpressed in 293T cells (ATCC) using the plasmids described herein. Plasmid DNA and empty vector DNA were added to phenol red free OptiMEM (Thermo Fisher) as shown in Table 6 in a total volume of 2.456 mL. 157 μL of Fugene HD (Promega) was added to the DNA mixture and allowed to incubate 5 min at 25° C. [table] Next, 2.375 mL of the plasmid-Fugene mixture were added to 20 million 293T cells in DMEM (Thermo Fisher) supplemented with 10% FBS (VWR). The transfection was incubated for 24 h at 37° C. in an incubator containing air supplemented with 5% CO2. The cells were resuspended in phenol red free OptiMEM media. 40 μL of cells were then added to white polystyrene 384-well non-binding surface microplate (Corning). […] Filtered luminescence was measured on an Envision (Perkin Elmer) equipped with a dual 585 nm mirror, 460±40 nm bandpass filter (donor) and 610±50 nm longpass filter (acceptor). […]
(Bioluminescence resonance energy transfer reports proximity on the nanometre scale.)

In another assay the target is T2, catalytic domain TIPARP (Homo sapiens, UniProt Q7Z3E1).
T2 construct: 456-657 of; expressed in transfected cells; host or cells: 293T cells (ATCC), pcDNA3.1
T2 sequence (Q7Z3E1 456-657): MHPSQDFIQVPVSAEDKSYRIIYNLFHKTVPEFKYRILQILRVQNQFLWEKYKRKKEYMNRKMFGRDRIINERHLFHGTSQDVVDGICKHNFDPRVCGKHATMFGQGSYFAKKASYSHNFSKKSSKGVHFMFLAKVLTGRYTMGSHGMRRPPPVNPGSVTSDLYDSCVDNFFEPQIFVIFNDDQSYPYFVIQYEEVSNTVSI
Kind of assay: NanoBRET probe displacement assay (Probe A) in live 293T cells, catalytic domain TIPARP. Conditions: NanoBRET displacement of Probe A, NanoLuc-tagged catalytic domain TIPARP in live 293T cells. On the procedure: as §1

Another assay has as its target T3, full-length TIPARP (Homo sapiens, UniProt Q7Z3E1).
T3 construct: 1-657 of; expressed in transfected cells; host or cells: 293T cells (ATCC), pcDNA3.1
T3 sequence (Q7Z3E1 1-657): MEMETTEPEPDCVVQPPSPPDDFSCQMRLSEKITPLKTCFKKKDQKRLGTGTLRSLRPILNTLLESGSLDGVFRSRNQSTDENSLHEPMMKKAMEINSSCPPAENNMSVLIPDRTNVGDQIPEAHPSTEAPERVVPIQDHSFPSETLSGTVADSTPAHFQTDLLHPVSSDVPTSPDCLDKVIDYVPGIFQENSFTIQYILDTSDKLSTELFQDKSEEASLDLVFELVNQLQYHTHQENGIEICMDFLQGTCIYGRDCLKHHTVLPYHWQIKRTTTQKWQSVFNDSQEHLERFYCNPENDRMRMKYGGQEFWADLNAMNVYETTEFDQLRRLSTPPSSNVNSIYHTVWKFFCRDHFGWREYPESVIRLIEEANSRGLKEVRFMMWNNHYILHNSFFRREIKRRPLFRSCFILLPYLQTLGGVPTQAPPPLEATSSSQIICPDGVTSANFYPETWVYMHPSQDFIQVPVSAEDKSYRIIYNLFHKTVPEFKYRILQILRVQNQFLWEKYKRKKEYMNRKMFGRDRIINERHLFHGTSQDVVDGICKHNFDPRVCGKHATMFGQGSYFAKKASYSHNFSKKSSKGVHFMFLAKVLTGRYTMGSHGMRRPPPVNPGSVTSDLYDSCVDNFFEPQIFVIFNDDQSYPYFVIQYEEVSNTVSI
Kind of assay: NanoBRET probe displacement assay (Probe A) in live 293T cells, full-length TIPARP. Conditions: NanoBRET displacement of Probe A, NanoLuc-tagged full-length TIPARP in live 293T cells. The protocol:
as §1

A further assay has as its target T4, PARP12 (Homo sapiens, UniProt Q9H0J9).
T4 sequence (Q9H0J9 489-684): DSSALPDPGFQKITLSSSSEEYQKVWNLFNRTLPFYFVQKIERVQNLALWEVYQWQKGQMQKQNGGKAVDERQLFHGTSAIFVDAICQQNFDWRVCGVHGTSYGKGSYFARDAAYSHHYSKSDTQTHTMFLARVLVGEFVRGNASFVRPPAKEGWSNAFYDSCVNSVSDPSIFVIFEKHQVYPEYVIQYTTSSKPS
Kind of assay: NanoBRET probe displacement assay (Probe A) in live 293T cells, PARP12. Also on record: 489-684 of; expressed in transfected cells; host or cells: 293T cells (ATCC), pcDNA3.1. Conditions: NanoBRET displacement of Probe A, NanoLuc-tagged PARP12 in live 293T cells. On the procedure: as §1

In turn, `CC(=O)N1CCC(Oc2ccc3c(n2)CN(c2cn[nH]c(=O)c2C(F)(F)F)C3)CC1` [Compound C, 5-[2-[(1-Acetylpiperidin-4-yl)oxy]-5H,6H,7H-pyrrolo[3,4-b]pyridin-6-yl]-4-(trifluoromethyl)-2,3-dihydropyridazin-3-one] yielded a concentration for half-maximal inhibition (IC50) on PARP10 of 4 nM.
On to `N#Cc1ccc(N2CCN(C(=O)c3cccc(OC[C@@H]4c5ccccc5CN4c4cn[nH]c(=O)c4C(F)(F)F)c3)CC2)nc1` [Compound B, 6-[4-[(3-[[(1S)-2-[6-Oxo-5-(trifluoromethyl)-1,6-dihydropyridazin-4-yl]-2,3-dihydro-1H-isoindol-1-yl]methoxy]phenyl)carbonyl]piperazin-1-yl]pyridine-3-carbonitrile], for which the IC50 was determined as 7 nM at catalytic domain TIPARP, 4 nM on full-length TIPARP and 170 nM at PARP12.
